Reference: PubChem BioAssay (NCI)
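Cultured in 96-well plates, cells were exposed to test compound for 48 hours across five concentrations. GI50: concentration for 50% inhibition of growth. TGI: total growth inhibition.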

Experiments:
Assay in all cases: NCI anticancer screen, dose series, 48 h
[1] = system: EKVX NSCLC
[2] = system: HCT-15 colon
[3] = system: MDA-MB-435
[4] = system: A549 NSCLC
[5] = system: RXF 393 renal
[6] = system: UACC-62 melanoma
[7] = system: NCI-H522 lung
[8] = system: PC-3 prostate
[9] = system: HCT-116 colon
[10] = system: SF-268 CNS
[11] = system: K-562 leukemia
[12] = system: SW-620 colon
[13] = system: ACHN renal
[14] = system: MDA-MB-231 breast
[15] = system: UACC-257 melanoma
[16] = system: CAKI-1 renal
[17] = system: SK-OV-3 ovarian
[18] = system: MCF7 breast
[19] = system: NCI-H226 lung
[20] = system: HOP-62 NSCLC
[21] = system: SK-MEL-28 melanoma
[22] = system: DU-145 prostate
[23] = system: CCRF-CEM leukemia
[24] = system: SF-295 CNS
[25] = system: NCI-H23 lung
[26] = system: SF-539 CNS
[27] = system: NCI/ADR-RES ovarian
[28] = system: A498 renal
[29] = system: OVCAR-4 ovarian
[30] = system: TK-10 renal
[31] = system: MALME-3M melanoma
[32] = system: HS 578T breast
[33] = system: HL-60(TB) leukemia
[34] = system: OVCAR-8 ovarian
[35] = system: MOLT-4 leukemia
[36] = system: OVCAR-3 ovarian
[37] = system: NCI-H460 lung
[38] = system: SR leukemia
[39] = system: RPMI-8226 leukemia
[40] = system: HT29 colon
[41] = system: IGROV1 ovarian
[42] = system: SK-MEL-5 melanoma
[43] = system: OVCAR-5 ovarian
[44] = system: KM12 colon
[45] = system: SN12C renal
[46] = system: M14 melanoma
[47] = system: LOX IMVI melanoma
[48] = system: SNB-19 CNS
[49] = system: HCC-2998 colon
[50] = system: U251 CNS
[51] = system: COLO 205 colon
[52] = system: BT-549 breast
[53] = system: SK-MEL-2 melanoma
[54] = system: 786-0 renal
[55] = system: UO-31 renal
[56] = system: MDA-MB-468 breast

C=C1CC[C@H](C(=C)C)[C@H]2C=C(C)C(=O)C3=C(C(=O)[C@@](C)(O)C3)[C@H]12
GI50 [1]: 1700 nM | TGI [1]: 3300 nM | GI50 [2]: 349 nM | TGI [2]: 1400 nM | GI50 [3]: 1550 nM | TGI [3]: 3140 nM | GI50 [4]: 1270 nM | TGI [4]: 3000 nM | GI50 [5]: 1510 nM | TGI [5]: 2990 nM | GI50 [6]: 1230 nM | TGI [6]: 2480 nM | GI50 [7]: 1180 nM | TGI [7]: 2530 nM | GI50 [8]: 1670 nM | TGI [8]: 3330 nM | GI50 [9]: 801 nM | TGI [9]: 2070 nM | GI50 [10]: 1580 nM | TGI [10]: 3360 nM | GI50 [11]: 611 nM | TGI [11]: 13100 nM | GI50 [12]: 1380 nM | TGI [12]: 3110 nM | GI50 [13]: 1480 nM | TGI [13]: 2800 nM | GI50 [14]: 1390 nM | TGI [14]: 2740 nM | GI50 [15]: 1350 nM | TGI [15]: 2760 nM | GI50 [16]: 1570 nM | TGI [16]: 2980 nM | GI50 [17]: 1870 nM | TGI [17]: 3830 nM | GI50 [18]: 639 nM | TGI [18]: 2020 nM | GI50 [19]: 1470 nM | TGI [19]: 3060 nM | GI50 [20]: 1760 nM | TGI [20]: 3270 nM | GI50 [21]: 1630 nM | TGI [21]: 2990 nM | GI50 [22]: 1230 nM | TGI [22]: 2480 nM | GI50 [23]: 2260 nM | TGI [23]: 5250 nM | GI50 [24]: 1480 nM | TGI [24]: 2840 nM | GI50 [25]: 1630 nM | TGI [25]: 3260 nM | GI50 [26]: 1410 nM | TGI [26]: 2710 nM | GI50 [27]: 1950 nM | TGI [27]: 5520 nM | GI50 [28]: 3560 nM | TGI [28]: 8500 nM | GI50 [29]: 1550 nM | TGI [29]: 2990 nM | GI50 [30]: 1790 nM | TGI [30]: 3220 nM | GI50 [31]: 1470 nM | TGI [31]: 2880 nM | GI50 [32]: 3030 nM | TGI [32]: 17700 nM | GI50 [33]: 853 nM | TGI [33]: 3760 nM | GI50 [34]: 1460 nM | TGI [34]: 3690 nM | GI50 [35]: 1210 nM | TGI [35]: 3750 nM | GI50 [36]: 1200 nM | TGI [36]: 2480 nM | GI50 [37]: 1480 nM | TGI [37]: 4040 nM | GI50 [38]: 324 nM | TGI [38]: 2060 nM | GI50 [39]: 1160 nM | TGI [39]: 3420 nM | GI50 [40]: 1070 nM | TGI [40]: 3230 nM | GI50 [41]: 1280 nM | TGI [41]: 2880 nM | GI50 [42]: 1480 nM | TGI [42]: 2830 nM | GI50 [43]: 1520 nM | TGI [43]: 2980 nM | GI50 [44]: 1460 nM | TGI [44]: 3270 nM | GI50 [45]: 1190 nM | TGI [45]: 2550 nM | GI50 [46]: 1340 nM | TGI [46]: 2820 nM | GI50 [47]: 369 nM | TGI [47]: 1500 nM | GI50 [48]: 1650 nM | TGI [48]: 3010 nM | GI50 [49]: 1280 nM | TGI [49]: 2540 nM | GI50 [50]: 1090 nM | TGI [50]: 2380 nM | GI50 [51]: 1740 nM | TGI [51]: 3250 nM | GI50 [52]: 1450 nM | TGI [52]: 2770 nM | GI50 [53]: 1460 nM | TGI [53]: 2880 nM | GI50 [54]: 1750 nM | TGI [54]: 3170 nM | GI50 [55]: 1120 nM | TGI [55]: 2320 nM | GI50 [56]: 528 nM | TGI [56]: 1940 nM
